According to US8303989B2, “Compositions and methods for increasing the oral absorption of antimicrobials” (International Health Management Associates, Inc., priority 2000, dated 2012):

Key:
[1] = Plasma ceftriaxone pharmacokinetics after intravenous administration to rats; format: in vivo, rat; conditions: i.v. 20 mg CTX/kg, no capmul
Description: These rats were anesthetized with 5.0 mg/100 g of pentobarbital by intraperitoneal injection. […] Blood samples were collected through the jugular vein catheter at predetermined time intervals.
For comparison purposes, about 20 mg/kg of CTX was administered (i.v.) to four rats.

in vivo = conditions: male, Sprague-Dawley, rat, plasma, other: intraduodenal (i.d.)
Description: (§1) At specific time intervals, 0.6 ml of blood was taken from each rat and centrifuged. About 0.2 ml of the blood plasma was then analyzed for CTX by HPLC.
(§2) To determine absorption from the intestine, male Sprague Dawley rats weighing 250-300 g with free access to water were fasted for about 18 hours prior to the experiment. These rats were anesthetized and maintained with Ketamine/Xlazine ((60 mg/kg)/(80 mg/kg)) by intraperitoneal injection. The small intestine was exposed by a midline abdominal incision. A small incision was made in the stomach to insert a polyethylene tube (i.d. 0.76 mm, o.d. 1.22 mm, Clay Adams) toward the duodenum, which was closed at the exposed end by a stopcock to prevent drainage of drug solution from the duodenum. Ceftriaxone and oral formulations of CTX were dissolved in distilled water to achieve a final concentration of 40 mg CTX eq./kg and injected into the duodenum using the tube. Then 0.2 ml mono- and diglyceride mixture (Capmul) was coadministered into the duodenum using the intraduodenal tube. Blood samples were taken with a heparinized syringe through the jugular vein catheter at predetermined intervals.
(§3) The concentration of ceftriaxone in the plasma was determined by HPLC. Blood samples were centrifuged for 5 min at 5,000 rpm and 0.2 ml of plasma was taken into the microtube. 0.2 ml plasma was diluted by 0.2 ml of distilled water, and then 0.8 ml of acetonitrile was added for protein removal. The resulting suspensions were centrifuged for 10 min at 12,000 rpm and 50 μl of the clear supernatant was used for HPLC analysis. […] Percent bioavailability was calculated as follows: % BA=(AUC i.d./AUC i.v.)×(Dose i.v./Dose i.d.)×100
(§4) As a control, about 40 mg/kg of CTX was i.d. co-administered with 0.2 ml of capmul to four rats. […] At specific time intervals, 0.6 ml of blood was taken from each rat and centrifuged. About 0.2 ml of the blood plasma was then analyzed for CTX by HPLC.

[2] = Plasma ceftriaxone (CTX) pharmacokinetics after intraduodenal (i.d.) administration to rats; conditions: for BA00 / BA0-4 hr: i.d. 40 mg CTX eq/kg with capmul chase vs i.v. 20 mg CTX/kg
Description: as §1, §2, §3, §4

[3] = Plasma concentration of meropenem in rats after intraduodenal administration; format: in vivo, rat; conditions: control: meropenem reconstituted per manufacturer, ID catheter, saline flush, no Capmul
Description: Meropenem was infused as a solution through an intraduodenal catheter followed by 0.2 ml. Capmul chase and a saline flush. The carrier formulation was meropenem in calcium-carrageenen to a final concentration of approximately 55% meropenem by weight. Two rats were dosed through a duodenum catheter and plasma samples were collected through 4 hours post dosage. For comparison purposes, a control group received meropenem reconstituted according to the manufacturers instructions, and infused as a solution through ID catheter followed by a saline flush.
Two fasted rats were dosed through a duodenal catheter and plasma samples were collected through 4 hours post dosage. […] A third rat expired prior to dosage, possibly due to anesthesia required for surgery. Rat #1 expired at 4 hours, possibly due to the effects of prolonged anesthesia and blood collection.

[4] = Table 5, rats, i.d. 40 mg CTX eq/kg, 0.2 ml capmul chase
[5] = Table 6, rats, i.d. 40 mg CTX eq/kg, 0.2 ml capmul chase

CO/N=C(\C(=O)N[C@@H]1C(=O)N2C(C(=O)O)=C(CSc3nc(=O)c(O)nn3C)CS[C@H]12)c1csc(N)n1 [CTX, ceftriaxone]
AUC00 ([1]; Table 5, rats): 188.0 ± 6.4 μghr/ml | AUC00 ([1]; Table 6, rats): 188.0 ± 6.4 μghr/ml | concentration at 30 min (in vivo; 40 mg CTX eq./kg): 10000 ng/mL | concentration at 60 min (in vivo; 40 mg CTX eq./kg): 11000 ng/mL | concentration at 90 min (in vivo; 40 mg CTX eq./kg): 9000 ng/mL | concentration at 120 min (in vivo; 40 mg CTX eq./kg): 7000 ng/mL | concentration at 180 min (in vivo; 40 mg CTX eq./kg): 6000 ng/mL | concentration at 240 min (in vivo; 40 mg CTX eq./kg): 5000 ng/mL | Cmax (in vivo; 40 mg CTX eq/kg): 17200 ng/mL | Tmax (in vivo; 40 mg CTX eq/kg): 1 h | BA00 ([2]; Table 5, rats): 13.9% | BA0-4 hr ([2]; Table 5, rats): 9.4% | AUC00 [2, 4]: 52.3 ± 32.4 μghr/ml | AUG0-4 hr [2, 4]: 31.7 ± 12.4 μghr/ml | BA00 ([2]; Table 6, rats): 13.9% | BA0-4 hr ([2]; Table 6, rats): 9.4% | AUC00 [2, 5]: 52.3 ± 32.4 μghr/ml | AUC0-4 hr [2, 5]: 31.7 ± 12.4 μghr/ml | Cmax [2, 5]: 17200 ng/mL

C[C@@H](O)[C@H]1C(=O)N2C(C(=O)O)=C(S[C@@H]3CN[C@H](C(=O)N(C)C)C3)[C@H](C)[C@H]12 [meropenem]
absorption [3]: not absorbed | blood concentrations [3]: undetectable
